# Laboratory results published in patent US20240116985A1, “STAPLED PEPTIDES AND METHODS THEREOF” (priority 2020, published 2024).
# Values joined by “and” are separate entries in the source; they are usually repeats but may differ in a detail not shown here. Equal entries are not always repeated. Where two headings read alike, the source gives them in different places.
# Key:
# CHI Log D procedure = format: physicochemical; conditions: pH 7.4, CHI Log D
# Solubility in PBS = format: physicochemical; conditions: Solubility (uM)
# Procedure, shortened: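 PBS sample ultracentrifuged; supernatant run on HPLC vs. 50 μM peptide in DMSO standard. Solubility = (PBS peak area / DMSO peak area) × 50 uM.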
# [1] = tested on: TCF/LEF luciferase Reporter in DLD1 cells; assay: TCF reporter assay (DLD1 TCF/LEF luciferase reporter, Bright-Glo); format: cell-based; conditions: for DLD1 TCF c2 BrightGlo % Inhibition: replicates
# Procedure, shortened: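 Readouts: Bright-Glo luciferase for reporter signal and CellTiter-Glo for cell viability, with absolute IC50 derived. The reporter clone came from lentiviral TCF/LEF-luciferase transduction of DLD1 cells, seeded 5000 cells/well in RPMI with 4% FBS and exposed overnight to serially diluted compounds.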
# [2] = biological target: T1, beta-catenin/TCF4 engagement (Homo sapiens, UniProt P35222); assay: Nano-BRET target engagement assay (B-cat-Halo & TCF4-Luc in HEK293 cells); format: cell-based; conditions: absolute IC50; read-out: NanoBRET Abs IC50
# T1 construct: expressed in transfected cells; host or cells: HEK293
# T1 sequence (P35222 1-781): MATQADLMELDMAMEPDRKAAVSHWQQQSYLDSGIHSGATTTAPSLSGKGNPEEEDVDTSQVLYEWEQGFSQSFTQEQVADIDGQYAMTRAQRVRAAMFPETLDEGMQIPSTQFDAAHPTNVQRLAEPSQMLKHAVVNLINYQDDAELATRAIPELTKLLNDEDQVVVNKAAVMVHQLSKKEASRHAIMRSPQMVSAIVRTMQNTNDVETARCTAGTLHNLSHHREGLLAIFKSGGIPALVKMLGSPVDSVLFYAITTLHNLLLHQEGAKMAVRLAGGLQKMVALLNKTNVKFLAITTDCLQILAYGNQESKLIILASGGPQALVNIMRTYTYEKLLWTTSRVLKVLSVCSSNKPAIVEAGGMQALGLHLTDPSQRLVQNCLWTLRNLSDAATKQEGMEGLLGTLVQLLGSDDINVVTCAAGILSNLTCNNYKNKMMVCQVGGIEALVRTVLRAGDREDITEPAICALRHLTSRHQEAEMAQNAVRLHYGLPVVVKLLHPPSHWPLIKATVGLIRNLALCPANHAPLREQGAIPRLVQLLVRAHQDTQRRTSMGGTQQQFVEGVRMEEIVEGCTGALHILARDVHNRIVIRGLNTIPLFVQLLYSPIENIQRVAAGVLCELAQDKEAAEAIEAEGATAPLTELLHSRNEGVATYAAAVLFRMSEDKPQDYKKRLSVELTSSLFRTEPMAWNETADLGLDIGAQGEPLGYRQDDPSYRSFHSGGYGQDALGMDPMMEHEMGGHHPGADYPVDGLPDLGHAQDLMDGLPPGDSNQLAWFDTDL
# [3] = biological target: T2, full-length beta-Catenin (Uniprot ID P35222) (Homo sapiens, UniProt P35222); assay: Fluorescence polarization IC50 (beta-catenin / 5FAM-TCF4 10-53 competition); format: binding; conditions: read-out: beta-Catenin FP IC50
# T2 construct: 10 nM full-length beta-Catenin (Uniprot ID P35222)
# T2 sequence (P35222 1-781): T1 sequence (P35222 1-781)
# [4] = absolute IC50, read-out: DLD1 reporter assay Abs IC50
# [5] = read-out: DLD1 4% Abs IC50, DLD1 4%
Structure (SMILES),chromatographic logD (CHI Log D procedure),Solubility (Solubility in PBS) [µM],"IC50 [1, 4] [µM]","DLD1 TCF c2 BrightGlo % Inhibition ([1]; first dose = 20 uM (plate map), 20 µM)","IC50 [1, 5] [µM]",DLD1 TCF c2 BrightGlo % Inhibition ([1]; 0.625 µM),DLD1 TCF c2 BrightGlo % Inhibition ([1]; 1.25 µM),DLD1 TCF c2 BrightGlo % Inhibition ([1]; 2.5 µM),DLD1 TCF c2 BrightGlo % Inhibition ([1]; 10 µM),"DLD1 TCF c2 BrightGlo % Inhibition ([1]; third dose = 5 uM (plate map), 5 µM)",IC50 [2] [µM],IC50 [3] [nM]
"CC(=O)N1CCC[C@]12CC=CCCCC1(CCCC=CCCCOC(=O)N3CC[C@@](C(=O)N[C@@H](Cc4ccccc4Cl)C(=O)N[C@@H](Cc4csc5ccccc45)C(=O)N[C@H](CO)CC(C)C)(C3)NC(=O)[C@H](CC(N)=O)NC(=O)[C@H](Cc3ccccc3)NC(=O)[C@H](C)NC(=O)[C@H](C)NC(=O)[C@H](CC(=O)O)NC(=O)[C@H](CC(=O)O)NC1=O)NC(=O)[C@H](CC(C)(C)C)NC(=O)[C@H](CC(=O)O)NC2=O (stereo partly drawn) [I-1080, Ac-PL3-Asp-Npg-B5-Asp-Asp-Ala-Ala-Phe-Asn-PyrS2-2C1F-BztA-Leuo1]",2.59,47,17.2,51.4% and 56.9% and 51.8%,10.4,20.2% and 13.7% and 15.3%,16.0% and 13.8% and 12.3%,14.6% and 19.8% and 7.9%,42.4% and 42.2% and 38.1%,24.9% and 31.0% and 24.4%,> 20,6
"CC(=O)N1CCC[C@]12CC=CCCCC1(CCCC=CCCCOC(=O)N3CC[C@@](C(=O)N[C@@H](Cc4ccccc4Cl)C(=O)N[C@@H](Cc4csc5ccccc45)C(=O)N[C@@H](CO)C(N)=O)(C3)NC(=O)[C@H]([C@@H](C)O)NC(=O)[C@H](Cc3ccccc3)NC(=O)[C@H](C)NC(=O)[C@H](C)NC(=O)[C@H](CC(=O)O)NC(=O)[C@H](CC(=O)O)NC1=O)NC(=O)[C@H](CC1CCCCC1)NC(=O)[C@H](CC(=O)O)NC2=O (stereo partly drawn) [I-1048, Ac-PL3-Asp-Cha-B5-Asp-Asp-Ala-Ala-Phe-Thr-PyrS2-2C1F-BztA-Ser-NH2]",2.52,42,10.5,–,–,–,–,–,–,–,8.8,5
"CC(=O)N1CCC[C@]12CC=CCCCC1(CCCC=CCCCOC(=O)N3CC[C@@](C(=O)N[C@@H](Cc4ccccc4Cl)C(=O)N[C@@H](Cc4csc5ccccc45)C(=O)N[C@@H](CCC(N)=O)C(N)=O)(C3)NC(=O)[C@H](CO)NC(=O)[C@H](Cc3ccccc3)NC(=O)[C@H](C)NC(=O)[C@H](C)NC(=O)[C@H](CC(=O)O)NC(=O)[C@H](CC(=O)O)NC1=O)NC(=O)[C@H](CC1CCCCC1)NC(=O)[C@H](CC(=O)O)NC2=O (stereo partly drawn) [I-1044, Ac-PL3-Asp-Cha-B5-Asp-Asp-Ala-Ala-Phe-Ser-PyrS2-2C1F-BztA-Gln-NH2]",2.32,43,20,–,14.5,–,–,–,–,–,17.6,5
"CC(=O)N1CCC[C@]12CC=CCCCC1(CCCC=CCCCOC(=O)N3CC[C@@](C(=O)N[C@@H](Cc4ccccc4Cl)C(=O)N[C@@H](Cc4csc5ccccc45)C(=O)N[C@@H](CCC(N)=O)C(N)=O)(C3)NC(=O)[C@H](CC(N)=O)NC(=O)[C@H](Cc3ccccc3)NC(=O)[C@H](C)NC(=O)[C@H](CC(C)C)NC(=O)[C@H](CN(CC(=O)O)CC(F)(F)F)NC(=O)[C@H](CC(=O)O)NC1=O)NC(=O)[C@H](CC(C)(C)C)NC(=O)[C@H](CC(=O)O)NC2=O (stereo partly drawn) [I-1007, Ac-PL3-Asp-Npg-B5-Asp-TfeGA-Leu-Ala-Phe-Asn-PyrS2-2C1F-BztA-Gln-NH2]",2.45,18,3.3,–,–,–,–,–,–,–,24.9,6
"CC(=O)N1CCC[C@]12CC=CCCCC1(CCCC=CCCCOC(=O)N3CC[C@@](C(=O)N[C@@H](Cc4ccccc4Cl)C(=O)N[C@@H](Cc4csc5ccccc45)C(=O)N[C@@H](CCC(N)=O)C(N)=O)(C3)NC(=O)[C@H](CC(N)=O)NC(=O)[C@H](Cc3ccccc3)NC(=O)[C@H](C)NC(=O)[C@H](CCCCN)NC(=O)[C@H](CN(CC(=O)O)CC(F)(F)F)NC(=O)[C@H](CC(=O)O)NC1=O)NC(=O)[C@H](CC(C)(C)C)NC(=O)[C@H](CC(=O)O)NC2=O (stereo partly drawn) [I-1011, Ac-PL3-Asp-Npg-B5-Asp-TfeGA-Lys-Ala-Phe-Asn-PyrS2-2C1F-BztA-Gln-NH2]",2.03,23,> 20,–,–,–,–,–,–,–,20.8,5
